From ChEMBL document CHEMBL3853299 (Eur J Med Chem, 2016)

Key:
Prothrombin [1] = biological target: T1, Prothrombin (Homo sapiens, UniProt P00734); assay: Inhibition of human thrombin at 1 ug/ml pre-incubated for 10 mins before Ac-FVR-AMC substrate addition and measured after 10 mins by fluorescence based assay
Prothrombin [2] = biological target: T1, Prothrombin; assay: Inhibition of human thrombin pre-incubated for 10 mins before Ac-FVR-AMC substrate addition and measured after 10 mins by fluorescence based assay
Rattus norvegicus = organism: Rattus norvegicus; assay: Anticoagulant activity in rat assessed as inhibition of arteriovenous thrombosis at 0.5 mg/ml after 15 mins relative to control; assay type: functional

SMILES	inhibition (Prothrombin [1]) [%]	IC50 (Prothrombin [2]) [nM]	inhibition (INH) (Rattus norvegicus) [%]
CCn1c(CNc2ccc(C(=N)N)cc2)nc2cc(C(=O)N(CCC(=O)O)c3c(C)cccc3C)ccc21	> 90	3.1	
CCn1c(CNc2ccc(C(=N)N)cc2)nc2cc(C(=O)N(CCC(=O)O)c3ccccc3C)ccc21	> 90	3.11	77.93
CCn1c(CNc2ccc(C(=N)N)cc2)nc2cc(C(=O)N(CCC(=O)O)c3cccc(C)n3)ccc21	> 90	0.96	85.35
CCn1c(CNc2ccc(C(=N)N)cc2)nc2cc(C(=O)N(CCC(=O)O)c3ccc(F)cc3F)ccc21	> 90	4.23	
CCn1c(CNc2ccc(C(=N)N)cc2)nc2cc(C(=O)N(CCC(=O)O)c3cccc(C)c3C)ccc21	> 90	6.59	
Cn1c(CNc2ccc(C(=N)N)cc2)nc2cc(C(=O)N(CCC(=O)O)c3ccccn3)ccc21 [DABIGATRAN]			85.07
CCn1c(CNc2ccc(C(=N)N)cc2)nc2cc(C(=O)N(CCC(=O)O)c3cc(C)ccn3)ccc21	> 90	1.62	

Further lines, with some results ahead:

inhibition (Prothrombin [1]) [%]	IC50 (Prothrombin [2]) [nM]	SMILES	inhibition (INH) (Rattus norvegicus) [%]
> 90	2.13	CCn1c(CNc2ccc(C(=N)N)cc2)nc2cc(C(=O)N(CCC(=O)O)c3cccc(C)c3)ccc21	
> 90	4.98	CCn1c(CNc2ccc(C(=N)N)cc2)nc2cc(C(=O)N(CCC(=O)O)c3ccc(C)cc3)ccc21	
> 90	4.69	CCn1c(CNc2ccc(C(=N)N)cc2)nc2cc(C(=O)N(CCC(=O)O)c3ccccc3)ccc21	
> 90	6.27	CCn1c(CNc2ccc(C(=N)N)cc2)nc2cc(C(=O)N(CCC(=O)O)c3ccc(F)c(C)c3)ccc21	
> 90	16.4	CCn1c(CNc2ccc(C(=N)N)cc2)nc2cc(C(=O)N(CCC(=O)O)c3ccc(C)cc3C)ccc21	
